Drawing on patent US12679822B2, “Alkenyl pyrimidine compound, preparation method therefor, and application thereof” (Hongyun Biotech Co., Ltd., priority 2020, dated 2026), this text covers GI50 for 22 molecules.

Molecules are shown by their SMILES.

Holding throughout (assay type): cell-based
For test [1], the target named is BaF3 cell lines stably transfected with kinase EGFR Del (Homo sapiens, UniProt P00533, cells depend on it, form not given). Kind of test: Growth inhibition of BaF3 cell line stably transfected with kinase EGFR Del (MTS). Particulars: 48 h, read-out: growth inhibitory activity IC50, Del. Here is the method: (§1) Biological Activity Assay: Growth Inhibitory Activity of Compounds on Cell Lines Stably Transfected with Kinase
Sequence of BaF3 cell lines stably transfected with kinase EGFR Del (P00533 with tags, fused parts or gaps DEL746-750): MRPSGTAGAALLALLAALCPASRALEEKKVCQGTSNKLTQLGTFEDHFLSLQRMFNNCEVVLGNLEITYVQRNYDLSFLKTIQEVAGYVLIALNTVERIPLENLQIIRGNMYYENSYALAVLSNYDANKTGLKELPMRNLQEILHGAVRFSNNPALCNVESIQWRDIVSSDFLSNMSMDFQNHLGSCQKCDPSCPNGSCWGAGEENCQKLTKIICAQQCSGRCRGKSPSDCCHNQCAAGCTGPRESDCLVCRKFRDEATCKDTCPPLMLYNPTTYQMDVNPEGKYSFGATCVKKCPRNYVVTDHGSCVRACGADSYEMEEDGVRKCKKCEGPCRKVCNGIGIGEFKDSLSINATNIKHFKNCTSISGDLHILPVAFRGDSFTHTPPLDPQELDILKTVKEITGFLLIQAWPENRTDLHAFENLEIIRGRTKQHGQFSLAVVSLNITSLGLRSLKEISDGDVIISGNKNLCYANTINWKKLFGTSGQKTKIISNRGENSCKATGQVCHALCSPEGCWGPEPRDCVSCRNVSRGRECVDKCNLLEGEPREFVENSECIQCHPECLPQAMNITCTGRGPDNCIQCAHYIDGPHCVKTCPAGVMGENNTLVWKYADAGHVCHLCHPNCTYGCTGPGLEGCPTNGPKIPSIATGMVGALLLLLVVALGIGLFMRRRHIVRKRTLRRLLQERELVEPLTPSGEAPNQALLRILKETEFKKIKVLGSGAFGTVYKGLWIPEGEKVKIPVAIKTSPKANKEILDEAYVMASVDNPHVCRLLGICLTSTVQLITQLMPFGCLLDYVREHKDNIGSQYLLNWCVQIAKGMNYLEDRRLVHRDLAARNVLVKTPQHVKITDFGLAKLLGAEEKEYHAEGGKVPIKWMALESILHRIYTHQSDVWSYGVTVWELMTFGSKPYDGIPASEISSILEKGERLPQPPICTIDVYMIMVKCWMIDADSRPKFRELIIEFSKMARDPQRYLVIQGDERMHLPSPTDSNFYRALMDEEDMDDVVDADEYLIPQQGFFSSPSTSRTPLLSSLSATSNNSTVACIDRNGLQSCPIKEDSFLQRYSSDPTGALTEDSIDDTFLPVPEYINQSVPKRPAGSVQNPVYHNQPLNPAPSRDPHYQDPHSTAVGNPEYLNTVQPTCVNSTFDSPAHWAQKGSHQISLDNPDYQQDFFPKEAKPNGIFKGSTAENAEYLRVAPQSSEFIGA
(§2) The activity of compounds against various mutants of kinase EGFR was evaluated by their effect of inhibiting growth of BaF3 cell lines stably transfected with kinase. The specific test method was given as follows:
(§3) 1) Culture medium: DMEM (Dulbecco's modified eagle medium) or RPMI 1640 (containing 10% fetal bovine serum, 100 μg/mL ampicillin, 100 μg/mL streptomycin).
(§4) 2) Reagent: MTS reaction solution (containing 2 mg/mL of MTS [3-(4,5-di methylthiazol-2-yl)-5-(3-carboxymethoxyphenyl)-2-(4-sulfophenyl)-2H-tetrazolium, inner Salt]; 100 μg/mL of PES (phenazine […])).
(§5) 3) Compound test: cells were incubated into a 96-well culture plate, the volume of cytosol was 90 μL, and then 10 μL of the compound at each gradient concentration was added. That is, the highest concentration was 10 μM, which was diluted stepwise by ⅓, and 8 concentration points were set in total; 0.1% DMSO (dimethyl sulfoxide) was contained in the system. The cell plate with uniformly mixed compound was cultured in a cell culture incubator (37° C.; 5% […]) for 48 h, then 20 μL of MTS reaction solution was added, uniformly mixed and incubated in the cell culture incubator (37° C.; 5% CO2) for 1-4 h; OD values at 490 nm were measured by a microplate reader (VARIOSKAN FLASH, Thermo). Two parallels were set in each group of experiments, with 0.1% (a final concentration) DMSO as a negative control, and a culture medium without cells and compounds as a blank control. The cell growth inhibition rate was calculated by the following formula: Cell growth inhibition rate %=1−(ODexperimental group−ODblank group)/(ODnegative group−ODblank group)×100%.
(§6) 4) IC50 calculation: The semi-inhibitory concentration of the compounds acting on cells was calculated using GradPad Prism 5 software according to the measured cell growth inhibition rate.

For test [2], the target named is BaF3 cell lines stably transfected with kinase EGFR L858R (Homo sapiens, UniProt P00533, L858R, cells depend on it). Put plainly: Growth inhibition of BaF3 cell line stably transfected with kinase EGFR L858R (MTS). Particulars: 48 h, read-out: growth inhibitory activity IC50, L858R. Here is the method: as §1, §2, §3, §4, §5, §6
Sequence of BaF3 cell lines stably transfected with kinase EGFR L858R (P00533 whole entry L858R): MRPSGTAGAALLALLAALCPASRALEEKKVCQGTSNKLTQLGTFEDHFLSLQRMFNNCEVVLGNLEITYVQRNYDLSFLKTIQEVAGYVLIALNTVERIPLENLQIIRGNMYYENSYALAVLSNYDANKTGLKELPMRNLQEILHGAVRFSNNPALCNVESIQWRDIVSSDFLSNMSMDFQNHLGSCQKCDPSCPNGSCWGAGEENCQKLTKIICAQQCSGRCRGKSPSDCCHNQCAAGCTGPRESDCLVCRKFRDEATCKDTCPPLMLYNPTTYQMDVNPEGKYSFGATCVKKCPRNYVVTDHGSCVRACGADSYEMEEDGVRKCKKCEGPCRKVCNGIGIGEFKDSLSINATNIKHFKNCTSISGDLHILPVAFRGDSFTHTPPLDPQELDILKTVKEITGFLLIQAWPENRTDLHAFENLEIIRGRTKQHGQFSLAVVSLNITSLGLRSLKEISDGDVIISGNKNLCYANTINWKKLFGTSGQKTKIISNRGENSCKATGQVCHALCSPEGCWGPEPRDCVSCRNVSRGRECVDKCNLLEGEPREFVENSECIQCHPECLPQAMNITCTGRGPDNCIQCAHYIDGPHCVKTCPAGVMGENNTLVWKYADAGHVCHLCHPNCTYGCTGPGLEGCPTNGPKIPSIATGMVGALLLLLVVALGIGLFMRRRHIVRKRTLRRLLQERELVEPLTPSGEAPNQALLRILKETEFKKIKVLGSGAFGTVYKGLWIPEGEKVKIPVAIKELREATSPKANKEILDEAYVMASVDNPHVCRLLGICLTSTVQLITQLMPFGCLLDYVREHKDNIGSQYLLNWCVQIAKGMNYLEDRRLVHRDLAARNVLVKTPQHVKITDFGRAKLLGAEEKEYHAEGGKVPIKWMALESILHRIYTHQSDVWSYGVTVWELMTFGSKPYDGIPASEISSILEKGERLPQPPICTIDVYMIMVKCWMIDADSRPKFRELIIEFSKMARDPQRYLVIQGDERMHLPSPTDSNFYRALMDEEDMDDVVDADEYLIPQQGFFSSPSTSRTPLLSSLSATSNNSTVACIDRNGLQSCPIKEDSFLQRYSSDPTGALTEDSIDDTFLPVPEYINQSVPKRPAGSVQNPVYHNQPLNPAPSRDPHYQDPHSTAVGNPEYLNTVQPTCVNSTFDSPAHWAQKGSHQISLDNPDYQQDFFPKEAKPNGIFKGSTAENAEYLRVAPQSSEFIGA
Test [3] concerns the target BaF3 cell lines stably transfected with kinase EGFR Del/T790M (Homo sapiens, UniProt P00533, T790M, cells depend on it, form not given). Kind of test: Growth inhibition of BaF3 cell line stably transfected with kinase EGFR Del/T790M (MTS). Conditions: 48 h, read-out: growth inhibitory activity IC50, Del/T790M. Here is the method:
as §1, §2, §3, §4, §5, §6

In test [4] the target is BaF3 cell lines stably transfected with kinase EGFR L858R/T790M (Homo sapiens, UniProt P00533, T790M/L858R, cells depend on it). Put plainly: Growth inhibition of BaF3 cell line stably transfected with kinase EGFR L858R/T790M (MTS). Particulars: 48 h, read-out: growth inhibitory activity IC50, L858R/T790M. The method, then: as §1, §2, §3, §4, §5, §6
Test [5] deals with BaF3 cell lines stably transfected with kinase EGFR Del/T790M/C797S (Homo sapiens, UniProt P00533, T790M/C797S, cells depend on it, form not given). Put plainly: Growth inhibition of BaF3 cell line stably transfected with kinase EGFR Del/T790M/C797S (MTS). Conditions: 48 h, read-out: growth inhibitory activity IC50, Del/T790M/C797S. The method, then:
as §1, §2, §3, §4, §5, §6

Test [6] concerns the target BaF3 cell lines stably transfected with kinase EGFR L858R/T790M/C797S (Homo sapiens, UniProt P00533, T790M/C797S/L858R, cells depend on it). Kind of test: Growth inhibition of BaF3 cell line stably transfected with kinase EGFR L858R/T790M/C797S (MTS). Particulars: 48 h, read-out: growth inhibitory activity IC50, L858R/T790M/C797S. Here is the method: as §1, §2, §3, §4, §5, §6

Sequence of BaF3 cell lines stably transfected with kinase EGFR Del/T790M (P00533 with tags, fused parts or gaps DEL746-750/T790M, form open): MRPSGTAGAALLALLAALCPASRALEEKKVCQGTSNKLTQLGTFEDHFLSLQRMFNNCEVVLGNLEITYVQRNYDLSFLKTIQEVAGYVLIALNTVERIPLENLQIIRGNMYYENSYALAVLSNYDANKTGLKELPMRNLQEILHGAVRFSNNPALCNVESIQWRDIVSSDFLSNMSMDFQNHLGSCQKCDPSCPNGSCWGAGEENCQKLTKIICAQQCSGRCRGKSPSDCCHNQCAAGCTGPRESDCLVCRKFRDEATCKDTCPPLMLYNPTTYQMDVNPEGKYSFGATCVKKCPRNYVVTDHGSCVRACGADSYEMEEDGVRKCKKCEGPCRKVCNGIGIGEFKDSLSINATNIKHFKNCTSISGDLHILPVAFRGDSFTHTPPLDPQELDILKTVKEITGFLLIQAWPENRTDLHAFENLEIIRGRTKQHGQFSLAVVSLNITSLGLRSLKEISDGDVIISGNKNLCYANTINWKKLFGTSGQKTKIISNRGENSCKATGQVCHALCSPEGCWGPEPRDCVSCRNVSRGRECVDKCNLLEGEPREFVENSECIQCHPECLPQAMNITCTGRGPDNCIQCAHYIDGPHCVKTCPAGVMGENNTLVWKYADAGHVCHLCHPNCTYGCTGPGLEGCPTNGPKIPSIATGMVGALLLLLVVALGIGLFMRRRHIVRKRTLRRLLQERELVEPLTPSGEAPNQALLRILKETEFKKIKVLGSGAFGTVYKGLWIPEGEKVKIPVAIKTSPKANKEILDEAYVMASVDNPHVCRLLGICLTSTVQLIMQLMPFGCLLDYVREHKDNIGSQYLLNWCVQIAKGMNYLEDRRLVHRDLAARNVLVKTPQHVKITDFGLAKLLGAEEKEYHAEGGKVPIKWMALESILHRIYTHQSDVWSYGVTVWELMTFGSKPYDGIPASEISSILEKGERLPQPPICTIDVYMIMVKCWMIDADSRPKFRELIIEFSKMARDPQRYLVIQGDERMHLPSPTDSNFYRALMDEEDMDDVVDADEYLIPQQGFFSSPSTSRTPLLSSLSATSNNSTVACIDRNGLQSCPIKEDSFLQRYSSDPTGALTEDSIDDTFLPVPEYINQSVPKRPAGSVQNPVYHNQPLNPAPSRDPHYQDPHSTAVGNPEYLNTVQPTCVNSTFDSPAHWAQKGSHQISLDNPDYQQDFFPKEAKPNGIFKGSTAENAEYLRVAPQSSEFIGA
Sequence of BaF3 cell lines stably transfected with kinase EGFR Del/T790M/C797S (P00533 with tags, fused parts or gaps DEL746-750/T790M/C797S, form open): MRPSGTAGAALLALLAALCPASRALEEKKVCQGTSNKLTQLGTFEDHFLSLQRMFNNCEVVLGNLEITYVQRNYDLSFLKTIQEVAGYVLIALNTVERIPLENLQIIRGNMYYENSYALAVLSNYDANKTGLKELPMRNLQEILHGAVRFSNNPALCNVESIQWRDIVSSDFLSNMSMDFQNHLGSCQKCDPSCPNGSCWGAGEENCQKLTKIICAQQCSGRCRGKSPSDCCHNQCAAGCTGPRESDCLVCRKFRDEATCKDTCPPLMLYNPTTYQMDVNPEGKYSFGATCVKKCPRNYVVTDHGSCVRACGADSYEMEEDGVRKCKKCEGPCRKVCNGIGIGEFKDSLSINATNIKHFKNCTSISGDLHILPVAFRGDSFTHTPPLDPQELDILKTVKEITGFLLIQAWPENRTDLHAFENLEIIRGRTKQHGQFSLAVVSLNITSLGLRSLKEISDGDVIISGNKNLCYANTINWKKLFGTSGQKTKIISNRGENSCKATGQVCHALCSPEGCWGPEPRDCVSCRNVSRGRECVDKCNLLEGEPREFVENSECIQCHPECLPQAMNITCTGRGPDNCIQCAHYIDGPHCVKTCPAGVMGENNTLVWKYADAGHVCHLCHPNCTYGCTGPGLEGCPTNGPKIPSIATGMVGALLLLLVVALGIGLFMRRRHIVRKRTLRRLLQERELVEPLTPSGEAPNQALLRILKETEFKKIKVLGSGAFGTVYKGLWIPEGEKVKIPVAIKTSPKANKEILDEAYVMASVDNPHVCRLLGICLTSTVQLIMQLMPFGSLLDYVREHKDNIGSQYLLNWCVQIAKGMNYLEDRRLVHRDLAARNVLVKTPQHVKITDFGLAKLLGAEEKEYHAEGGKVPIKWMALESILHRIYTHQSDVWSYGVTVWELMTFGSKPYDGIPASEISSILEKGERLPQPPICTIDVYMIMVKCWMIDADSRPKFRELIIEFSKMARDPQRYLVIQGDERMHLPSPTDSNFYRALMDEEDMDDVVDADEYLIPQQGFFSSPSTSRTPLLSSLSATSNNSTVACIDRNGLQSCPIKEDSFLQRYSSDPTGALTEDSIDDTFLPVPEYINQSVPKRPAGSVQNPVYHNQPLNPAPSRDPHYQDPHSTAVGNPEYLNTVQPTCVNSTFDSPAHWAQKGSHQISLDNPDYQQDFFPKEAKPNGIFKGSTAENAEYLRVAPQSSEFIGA

`C=Cc1cnc(Nc2ccn(CC)n2)nc1Nc1ccc2nccnc2c1N(C)S(C)(=O)=O` [II-60]: the GI50 is 50 to 500 nM in test [1]; 50 to 500 nM in test [2]; 500 to 2500 nM in test [3]; 500 to 2500 nM in test [4]; 50 to 500 nM in test [5]; 50 to 500 nM in test [6].

In the case of `C=Cc1cnc(Nc2cc(CC3CC3)c(N3CCC(N4CCN(C)CC4)CC3)cc2OC)nc1Nc1ccc2nccnc2c1S(=O)(=O)NC` [IV-8], the GI50 in test [1] was 50 to 500 nM; in test [2], 500 to 2500 nM; in test [3], 50 to 500 nM; in test [4], 50 to 500 nM; in test [5], 50 to 500 nM; in test [6] it was 50 to 500 nM.

As to `CCc1cc(Nc2ncc(C3=CCCC3)c(Nc3ccc4nccnc4c3P(C)(C)=O)n2)c(OC)cc1N1CCC(N2CCN(C)CC2)CC1` [Compound I-13], the GI50 was not above 50 nM in test [1]; not above 50 nM in test [2]; 50 to 500 nM in test [3]; 50 to 500 nM in test [4]; 50 to 500 nM in test [5]; 50 to 500 nM in test [6].

For the molecule `C=Cc1cnc(Nc2cc(CC)c(N3CCC(N(C)C)C3)cc2OC)nc1Nc1ccc2nccnc2c1N(C)S(C)(=O)=O` (stereo not drawn) [II-3], the GI50 in test [1], in test [2], in test [3], in test [4], in test [5] and in test [6] was not above 50 nM throughout.

`CCc1cc(Nc2ncc(C=C(C)C)c(Nc3ccc4nccnc4c3P(C)(C)=O)n2)c(OC)cc1N1CCC(N2CCN(C)CC2)CC1` [Compound I-10]: the GI50 in test [1] is not above 50 nM; in test [2], not above 50 nM; in test [3] it was 500 to 2500 nM; in test [4], 50 to 500 nM; in test [5], 50 to 500 nM; in test [6], 50 to 500 nM.

Turning to `C=Cc1cnc(Nc2cc(CC)c(N3CCC(N(C)C)CC3)cc2OC)nc1Nc1ccc2nccnc2c1NS(C)(=O)=O` [II-39], the GI50 in test [1], in test [2], in test [3], in test [4], in test [5] and in test [6] was not above 50 nM throughout.

For the molecule `C=Cc1cnc(Nc2cc(C(C)C)c(N3CCC(N4CCN(C)CC4)CC3)cc2OC)nc1Nc1ccc2nccnc2c1N(C)S(C)(=O)=O` [II-17], the GI50 in test [1] was 50 to 500 nM; in test [2], 500 to 2500 nM; in test [3] it was 50 to 500 nM; in test [4], 50 to 500 nM; in test [5], 50 to 500 nM; in test [6], 50 to 500 nM.

`CCc1cc(Nc2ncc(C3=CCCC3)c(Nc3ccc4nccnc4c3N(C)S(C)(=O)=O)n2)c(OC)cc1N1CCC(N2CCN(C)CC2)CC1` [II-27]: the GI50 is not above 50 nM in test [1]; 50 to 500 nM in test [2]; 500 to 2500 nM in test [3]; 500 to 2500 nM in test [4]; 500 to 2500 nM in test [5]; 500 to 2500 nM in test [6].

For `C=Cc1cnc(Nc2cc(CC)c(N3CCC(N4CCN(C)CC4)CC3)cc2OC(F)(F)F)nc1Nc1ccc2nccnc2c1S(=O)(=O)NC` [IV-5], the GI50 fell in the range of 500 to 2500 nM in test [1]; 500 to 2500 nM in test [2]; 50 to 500 nM in test [3]; 50 to 500 nM in test [4]; 500 to 2500 nM in test [5]; 500 to 2500 nM in test [6].

`C=Cc1cnc(Nc2ccc(N3CCC(N4CCN(C)CC4)CC3)c(CC)c2)nc1Nc1ccc2nccnc2c1NS(C)(=O)=O` [II-38]: the GI50 was not above 50 nM in test [1]; not above 50 nM in test [2]; not above 50 nM in test [3]; not above 50 nM in test [4]; 50 to 500 nM in test [5]; not above 50 nM in test [6].

Regarding `C=Cc1cnc(Nc2cc(Cc3ccccc3)c(N3CCC(N4CCN(C)CC4)CC3)cc2OC)nc1Nc1ccc2nccnc2c1N(C)S(C)(=O)=O` [II-19], the GI50 is 500 to 2500 nM in test [1]; 500 to 2500 nM in test [2]; 50 to 500 nM in test [3]; 500 to 2500 nM in test [4]; not above 50 nM in test [5]; 50 to 500 nM in test [6].

For the molecule `C=Cc1cnc(Nc2ccn(C(C)C)n2)nc1Nc1ccc2nccnc2c1N(C)S(C)(=O)=O` [II-61], the GI50 in test [1] is 500 to 2500 nM; in test [2] it was not above 50 nM; in test [3] it was 500 to 2500 nM; in test [4] it was 500 to 2500 nM; in test [5] it was 50 to 500 nM; in test [6], 50 to 500 nM.

Take `C=Cc1cnc(Nc2cccc(C3CCN(C)CC3)c2)nc1Nc1ccc2nccnc2c1P(C)(C)=O` [Compound I-22]: the GI50 in test [1] was 50 to 500 nM; in test [2], 50 to 500 nM; in test [3] it was 50 to 500 nM; in test [4], not above 50 nM; in test [5], 500 to 2500 nM; in test [6] it was 50 to 500 nM.

Regarding `C=Cc1cnc(Nc2cc3c(cc2OC(F)(F)F)CCN(C)C3)nc1Nc1ccc2nccnc2c1N(C)S(C)(=O)=O` [II-76], the GI50 in test [1] is 50 to 500 nM; in test [2], 50 to 500 nM; in test [3], 500 to 2500 nM; in test [4], 50 to 500 nM; in test [5] it was 500 to 2500 nM; in test [6] it was 50 to 500 nM.

As for `C=Cc1cnc(Nc2cc(C3CC3)c(N3CCC(N4CCN(C)CC4)CC3)cc2OC)nc1Nc1ccc2nccnc2c1S(=O)(=O)C(C)C` [III-21], the GI50 in test [1], in test [2], in test [3], in test [4], in test [5] and in test [6] was 50 to 500 nM throughout.

Consider `C=Cc1cnc(Nc2cc(CC)c(N3CCN(C)CC3)cc2OC)nc1Nc1ccc2nccnc2c1S(C)(=O)=O` [III-4], for which the GI50 in test [1] fell in the range of 500 to 2500 nM; in test [2] it was 500 to 2500 nM; in test [3], 500 to 2500 nM; in test [4] it was 50 to 500 nM; in test [5], 500 to 2500 nM; in test [6], 500 to 2500 nM.

Consider `C=C(C)c1cnc(Nc2cn[nH]c2)nc1Nc1ccc2nccnc2c1N(C)S(C)(=O)=O` [II-70], for which the GI50 in test [1] was 50 to 500 nM; in test [2], 50 to 500 nM; in test [3], 50 to 500 nM; in test [4], not above 50 nM; in test [5] it was not above 50 nM; in test [6], 50 to 500 nM.

As to `C=Cc1cnc(Nc2cc(CC)c(N(C)CCN(C)C)cc2OC)nc1Nc1ccc2nccnc2c1N(C)S(C)(=O)=O` [II-51], the GI50 in test [1] lay within 50 to 500 nM; in test [2], 500 to 2500 nM; in test [3], 50 to 500 nM; in test [4], 50 to 500 nM; in test [5] it was 50 to 500 nM; in test [6], 50 to 500 nM.

For the molecule `C=Cc1cnc(Nc2cc(F)c(N3CCC(N4CCN(C)CC4)CC3)c(F)c2)nc1Nc1ccc2nccnc2c1S(=O)(=O)NC` [IV-11], the GI50 was 50 to 500 nM in test [1]; 50 to 500 nM in test [2]; 50 to 500 nM in test [3]; not above 50 nM in test [4]; 50 to 500 nM in test [5]; 50 to 500 nM in test [6].

`CCc1cc(Nc2ncc(/C=C/C3CC3)c(Nc3ccc4nccnc4c3P(C)(C)=O)n2)c(OC)cc1N1CCC(N2CCN(C)CC2)CC1` [Compound I-11]: the GI50 in test [1] was not above 50 nM; in test [2] it was not above 50 nM; in test [3], 50 to 500 nM; in test [4] it was 50 to 500 nM; in test [5], 50 to 500 nM; in test [6] it was 50 to 500 nM.

For the molecule `C=Cc1cnc(Nc2cc(C)c(N3CCC(N4CCN(C)CC4)CC3)cc2OC)nc1Nc1ccc2nccnc2c1S(=O)(=O)C(C)C` [III-19], the GI50 lay within 50 to 500 nM in test [1]; 50 to 500 nM in test [2]; 50 to 500 nM in test [3]; 50 to 500 nM in test [4]; 500 to 2500 nM in test [5]; 50 to 500 nM in test [6].

As to `C=Cc1cnc(Nc2cc(C3CC3)c(N3CCC(N4CCN(C)CC4)CC3)cc2OC)nc1Nc1ccc2nccnc2c1S(=O)(=O)NC` [IV-7], the GI50 in test [1], in test [2], in test [3], in test [4], in test [5] and in test [6] was 50 to 500 nM in each case.
